Earlier results, collected in US20250221954A1, “METHODS TO TREAT, PREVENT, OR REDUCE HYPERAMMONEMIA” (priority 2024, published 2025).

Columns and labels:
[1] = decrease in clearance with increased dose
[2] = prolonged, multiday maintenance of phenylacetate infusions

SMILES | elimination [1] | potential neurotoxicity [2]
O=C([O-])Cc1ccccc1.[Na+] [phenylacetate, sodium phenylacetate] | saturable, non-linear elimination | somnolence, fatigue, and lightheadedness
O=C([O-])c1ccccc1.[Na+] [benzoate, sodium benzoate] | saturable, non-linear elimination | 
